In ChEMBL document CHEMBL3627665, “Challenges and Opportunities in the Discovery of New Therapeutics Targeting the Kynurenine Pathway” (J Med Chem, 2015) one finds IC50 data, which are given here for seven molecules.

For assay [1], the target named is Tryptophan 2,3-dioxygenase (Mus musculus, UniProt P48776). Briefly: Inhibition of mouse TDO.
Assay [2] deals with Indoleamine 2,3-dioxygenase 1 (Mus musculus, UniProt P28776). Description: Inhibition of mouse IDO1.
In assay [3] the target is Tryptophan 2,3-dioxygenase (Homo sapiens, UniProt P48775). Briefly: Inhibition of TDO (unknown origin).
Chain of Tryptophan 2,3-dioxygenase (Homo sapiens, UniProt P48775) (P48775 whole entry): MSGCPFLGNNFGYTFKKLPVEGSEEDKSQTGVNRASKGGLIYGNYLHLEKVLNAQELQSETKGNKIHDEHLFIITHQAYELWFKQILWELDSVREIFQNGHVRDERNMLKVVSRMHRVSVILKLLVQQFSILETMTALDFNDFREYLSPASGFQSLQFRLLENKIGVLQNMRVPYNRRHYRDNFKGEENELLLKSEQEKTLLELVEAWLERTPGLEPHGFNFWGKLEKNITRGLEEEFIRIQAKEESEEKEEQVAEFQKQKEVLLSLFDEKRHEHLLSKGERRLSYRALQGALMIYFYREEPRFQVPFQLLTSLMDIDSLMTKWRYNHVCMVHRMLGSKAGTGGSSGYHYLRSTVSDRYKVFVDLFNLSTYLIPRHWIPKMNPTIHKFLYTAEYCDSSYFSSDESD
The target in assay [4] is T1, Indoleamine 2,3-dioxygenase 2 (Homo sapiens, UniProt Q6ZQW0).
T1 sequence (Q6ZQW0 whole entry): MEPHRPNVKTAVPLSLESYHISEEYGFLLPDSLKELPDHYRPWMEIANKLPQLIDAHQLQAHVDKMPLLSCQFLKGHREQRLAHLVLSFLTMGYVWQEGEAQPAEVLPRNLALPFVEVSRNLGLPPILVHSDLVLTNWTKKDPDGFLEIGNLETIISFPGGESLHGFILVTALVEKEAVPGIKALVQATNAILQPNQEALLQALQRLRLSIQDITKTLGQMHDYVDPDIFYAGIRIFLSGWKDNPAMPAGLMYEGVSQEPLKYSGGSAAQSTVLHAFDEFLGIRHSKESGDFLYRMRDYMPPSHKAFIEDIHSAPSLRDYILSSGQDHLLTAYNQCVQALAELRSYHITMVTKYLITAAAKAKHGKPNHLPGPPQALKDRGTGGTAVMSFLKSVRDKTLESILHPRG
Briefly: Inhibition of human IDO2.

For assay [5], the target named is Kynurenine 3-monooxygenase (Homo sapiens, UniProt O15229). Briefly: Inhibition of human KMO.
Chain of Kynurenine 3-monooxygenase (Homo sapiens, UniProt O15229) (O15229 whole entry): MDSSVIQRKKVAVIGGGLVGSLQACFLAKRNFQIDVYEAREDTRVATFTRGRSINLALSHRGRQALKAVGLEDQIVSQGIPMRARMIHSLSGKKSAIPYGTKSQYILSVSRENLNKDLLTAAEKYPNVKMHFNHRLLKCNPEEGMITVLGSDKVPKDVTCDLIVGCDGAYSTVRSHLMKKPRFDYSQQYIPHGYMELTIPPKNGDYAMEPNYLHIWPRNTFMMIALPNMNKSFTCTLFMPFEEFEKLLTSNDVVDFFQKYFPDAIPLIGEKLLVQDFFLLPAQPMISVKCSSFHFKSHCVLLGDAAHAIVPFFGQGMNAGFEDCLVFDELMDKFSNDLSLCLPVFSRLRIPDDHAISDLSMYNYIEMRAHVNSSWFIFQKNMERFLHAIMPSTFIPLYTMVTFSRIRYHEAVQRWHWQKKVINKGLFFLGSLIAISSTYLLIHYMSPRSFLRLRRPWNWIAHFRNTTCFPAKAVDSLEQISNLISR
In assay [6] the target is T2, Kynurenine 3-monooxygenase (Saccharomyces cerevisiae (strain ATCC 204508 / S288c) (Baker's yeast), UniProt P38169).
T2 sequence (P38169 whole entry): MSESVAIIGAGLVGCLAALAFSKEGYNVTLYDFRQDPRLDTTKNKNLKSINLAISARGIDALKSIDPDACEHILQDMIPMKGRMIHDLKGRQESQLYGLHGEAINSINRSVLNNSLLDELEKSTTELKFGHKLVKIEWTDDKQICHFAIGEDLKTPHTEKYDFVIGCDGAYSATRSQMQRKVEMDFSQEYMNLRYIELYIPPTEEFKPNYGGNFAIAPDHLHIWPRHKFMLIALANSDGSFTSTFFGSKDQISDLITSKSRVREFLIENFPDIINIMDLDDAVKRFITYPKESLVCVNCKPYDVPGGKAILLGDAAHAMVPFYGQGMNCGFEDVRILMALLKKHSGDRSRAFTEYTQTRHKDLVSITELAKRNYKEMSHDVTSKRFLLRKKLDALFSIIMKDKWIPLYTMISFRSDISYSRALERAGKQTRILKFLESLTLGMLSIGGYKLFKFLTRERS
Description: Inhibition of yeast KMO.

Assay [7] concerns the target Kynurenine/alpha-aminoadipate aminotransferase, mitochondrial (Rattus norvegicus, UniProt Q64602). Briefly: Inhibition of rat KAT-2.

Chain of Kynurenine/alpha-aminoadipate aminotransferase, mitochondrial (Q64602 whole entry): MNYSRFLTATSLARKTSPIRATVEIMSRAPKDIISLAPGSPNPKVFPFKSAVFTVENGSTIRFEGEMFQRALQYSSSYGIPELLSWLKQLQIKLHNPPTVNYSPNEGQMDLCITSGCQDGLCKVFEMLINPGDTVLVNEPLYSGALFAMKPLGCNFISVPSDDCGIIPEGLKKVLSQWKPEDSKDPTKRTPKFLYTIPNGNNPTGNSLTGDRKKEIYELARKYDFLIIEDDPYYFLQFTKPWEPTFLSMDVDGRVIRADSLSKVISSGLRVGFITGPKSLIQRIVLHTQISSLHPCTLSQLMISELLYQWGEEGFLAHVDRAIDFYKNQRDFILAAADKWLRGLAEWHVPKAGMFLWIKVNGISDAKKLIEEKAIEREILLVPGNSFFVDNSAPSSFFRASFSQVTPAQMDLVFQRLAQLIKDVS
Chain of Indoleamine 2,3-dioxygenase 1 (P28776 whole entry): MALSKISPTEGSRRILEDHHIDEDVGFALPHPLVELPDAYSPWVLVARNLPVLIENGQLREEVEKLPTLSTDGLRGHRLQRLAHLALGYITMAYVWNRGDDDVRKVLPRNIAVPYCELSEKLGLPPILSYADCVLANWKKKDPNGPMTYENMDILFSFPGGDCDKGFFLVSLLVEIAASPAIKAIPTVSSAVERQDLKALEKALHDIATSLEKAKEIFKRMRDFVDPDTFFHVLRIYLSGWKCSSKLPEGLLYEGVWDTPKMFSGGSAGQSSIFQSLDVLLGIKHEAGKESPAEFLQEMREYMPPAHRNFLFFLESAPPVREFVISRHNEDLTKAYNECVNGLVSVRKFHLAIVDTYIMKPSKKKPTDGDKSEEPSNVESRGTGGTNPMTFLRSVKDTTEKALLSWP
Chain of Tryptophan 2,3-dioxygenase (Mus musculus, UniProt P48776) (P48776 whole entry): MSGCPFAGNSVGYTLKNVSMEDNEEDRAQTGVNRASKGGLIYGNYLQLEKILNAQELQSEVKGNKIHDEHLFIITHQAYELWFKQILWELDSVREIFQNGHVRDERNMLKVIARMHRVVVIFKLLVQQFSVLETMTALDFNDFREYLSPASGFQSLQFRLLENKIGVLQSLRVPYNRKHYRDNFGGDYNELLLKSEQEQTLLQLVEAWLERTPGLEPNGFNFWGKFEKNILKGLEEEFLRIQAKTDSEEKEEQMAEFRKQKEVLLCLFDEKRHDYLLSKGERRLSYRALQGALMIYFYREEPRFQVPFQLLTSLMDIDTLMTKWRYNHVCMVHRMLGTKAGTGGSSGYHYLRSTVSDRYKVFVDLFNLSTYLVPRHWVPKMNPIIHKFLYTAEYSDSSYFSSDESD

Turning to `Fc1ccc2c(/C=C/c3nnn[nH]3)c[nH]c2c1`, the IC50 – broadly, the concentration needed to halve the response being measured – was 1960 nM in assay [1] and more than 400000 nM in assay [2].

Consider `Cc1ccc(-c2csc3nnc(SCC(=O)Nc4ccc5c(c4)OCO5)n23)cc1`, for which the figures for the IC50 in assay [3] and in assay [4] were more than 62500 nM and more than 250000 nM, respectively. For the molecule `Fc1ccc2c(/C=C/c3cccnc3)c[nH]c2c1`, the results for the IC50 in assay [1] and in assay [2] were 1460 nM and more than 80000 nM, respectively.

Turning to `O=C(CC1c2ccccc2-c2cncn21)C1CCCCC1` (stereo unspecified), the IC50 in assay [3] was less than 1000 nM. `O=C(O)C1CC1C(=O)c1ccc(Cl)c(Cl)c1` (stereo unspecified): the results for the IC50 in assay [5] and in assay [6] were 20 nM and 74 nM, respectively. Molecule `CCS(=O)(=O)c1ccc(C(=O)C[C@H](N)C(=O)O)cc1` registered an IC50 in assay [7] of 71000 nM. Same read-out and setting: for `O=C1NC(=O)/C(=C/c2cccc(-c3ccc4c5c3CCC(=O)N5CC4)c2)S1` the value was 13400 nM.
